Entries after “also recorded” stand apart in the source; their conditions may differ. Where a SMILES comes first, the peptide text is derived from it. [ ]: non-standard residue; d: D form. pGlu = O=C1CC[C@@H](C(=O)O)N1

The test system of experiment [1] is hemi-anterior pituitaries of adult male rats. Put plainly: FSH release in vitro from incubated hemi-anterior pituitaries (RIA of medium). The format is cell-based, rat. To be noted: for FSH: Table 2, 3 hr incubation, KRB control 97.7 ± 20.4, n = 6. On the procedure:
(§1) After acclimatization for 5 or more days in the vivarium, male rats were killed by decapitation. Following removal of the posterior lobe, the anterior pituitary (AP) was bisected longitudinally, and each AP was incubated in a tube containing 0.5 ml Krebs-Ringer bicarbonate (5 mM ascorbic acid; pH 7.4) buffer (KRB) in an atmosphere of 95% O2 /5% CO2 in a Dubnoff shaker (50 cycles per min) for a period of 60 min. Following this pre-incubation period, the APs were incubated for 3 hr in fresh KRB buffer alone (control), or in KRB containing one of various concentrations of synthetic mammalian (m)-LHRH, l-LHRH-III, l-LHRH-I, chicken (c)-LHRH-II, or salmon (s)-LHRH. The medium was then aspirated, and was stored frozen at -20° C. until radio-immunoassays (RIA) for FSH and LH were conducted. FSH and LH were measured using kits supplied by the National Institute of Arthritis Digestive Diabetes and Kidney Disease; hormone values were expressed in terms of NIH-rFSH-RP-2 and NIH-rLH-RP-3 standards. The experiments were repeated twice. The inter- and intra-assay coefficients of variation for FSH assays were 7.5% and 5.2%, respectively; and were 6.5% and 4.8% for LH assays.

Experiment [2] has the same test system. Kind of experiment: LH release in vitro from incubated hemi-anterior pituitaries (RIA of medium). Particulars: for LH: Table 3, 3 hr incubation, KRB control 139.3 ± 16.9, n = 6. The format is cell-based, rat. As for the experimental part:
as §1

A further experiment has as its system rats. To be noted: Yu et al., 1990; cited from earlier work.

On to `CC(C)C[C@H](NC(=O)[C@H](CO)NC(=O)[C@H](Cc1ccc(O)cc1)NC(=O)[C@H](Cc1c[nH]cn1)NC(=O)[C@@H]1CCC(=O)N1)C(=O)N[C@@H](CCC(=O)O)C(=O)N[C@@H](Cc1c[nH]c2ccccc12)C(=O)N[C@@H](CCCCN)C(=O)N1CCC[C@H]1C(=O)NCC(N)=O` [l-LHRH-I, pGlu-His-Tyr-Ser-Leu-Glu-Trp-Lys-Pro-Gly-NH2] ([pGlu]HYSLEWKPG-NH2), for which the “FSH release in vitro, result in words” value in experiment [1] is “minimal potency to release either FSH or LH; also recorded: small but statistically significant release of FSH at a concentration of 10^-5 M”. The “FSH” value was 178.2 ± 17.0 ng/mL in experiment [1] (10^-5 M) and 164.0 ± 29.3 ng/mL in experiment [1] (10^-6 M). Moreover, in experiment [2], the “LH release in vitro, result in words” value is “minimal potency to release either FSH or LH; also recorded: inactive at the two concentrations tested”. Besides, the “LH” value in experiment [2] (10^-5 M) amounted to 120.4 ± 8.1 ng/mL; in experiment [2] (10^-6 M), 134.1 ± 23.2 ng/mL. Also, in the experiment with rats, the “activity in releasing FSH or LH in rats” value was “relatively low activity in releasing either FSH or LH”.

The values are drawn from patent US6300471A, “FSH-releasing peptides” (Board of Supervisors of Louisiana State University and …, priority 1998, dated 2001).
